Experimental data: US10669334B2, “Treatment for Dupuytren's disease” (Oxford University Innovation Limited, priority 2010, dated 2020)

Experiments:
palmar fibroblasts = assay: Culture force monitor: isometric force contraction of collagen gels seeded with palmar fibroblasts; assay type: cell-based, human; conditions: 24 h; for isometric force contraction of palmar fibroblasts: 1 ng/ml, versus PS alone, FIG. 12 / FIG. 22
Text: The culture force monitor (CFM) utilised and culture conditions are shown in FIGS. 3A to 3E: (A) Rectangular seeded collagen gels were cast and floated in medium, tethered between two flotation bars one of which is held stationary whilst the other is attached to a force transducer. (B) Cell-generated tensional forces in the collagen gel are detected by the force transducer, and live data are logged every 15 seconds providing a continuous output of force (dynes, […]) generated. (C) After 24 hour contraction, gels are harvested and processed for α-SMA mRNA, protein and immunofluorescence. (D) Cells were routinely seeded in gels with a high aspect-ratio collagen lattice, although low aspect-ratio lattices (E) were also used in experiments to compare effects of less strain on cell contractility. […]
Collagen gels seeded with palmar fibroblasts were cultured for 24 h with supernatants from AGE-(100 μg/ml) stimulated monocytes (M) in the absence or presence of anti TNF-α (10 μg/ml) and isometric force contraction quantified. Experiments were performed in duplicate. […]

human monocytes = assay: TNF-α production by human monocytes (ELISA); assay type: cell-based
Experimental: LPS, a pathogen associated molecular pattern (PAMP) is shown as positive control.
The known receptors for S100A8 are the receptor for advanced glycation end products (RAGE) and the Toll-like receptors 2 and 4. Human monocytes at 1×10^5/ml were incubated in 10% FCS with human S100 A8 at 0.5 with the addition of either antibody to TLR4, TLR2 or isotype controls (not shown), or soluble RAGE (sRAGE)) over 14 hours. TNF-α levels were determined by ELISA.
It is more difficult to show in vitro that HMGB1 also acts on monocytes to lead to pro-inflammatory cytokine release. […] Our experiment, the results of which are shown in FIG. 18, involved human monocytes at 1×10^5/ml incubated in 10% FCS with HMGB1 or LPS alone or together at concentrations shown over 14 hours. TNF-α levels were determined by ELISA.

[1] = test system: non-palmar dermal fibroblasts; assay: Culture force monitor: contraction rate of non-palmar dermal fibroblasts; assay type: cell-based, human; conditions: 1 ng/ml; 24 h; one patient; FIG. 22
Text: The culture force monitor (CFM) utilised and culture conditions are shown in FIGS. 3A to 3E: (A) Rectangular seeded collagen gels were cast and floated in medium, tethered between two flotation bars one of which is held stationary whilst the other is attached to a force transducer. (B) Cell-generated tensional forces in the collagen gel are detected by the force transducer, and live data are logged every 15 seconds providing a continuous output of force (dynes, […]) generated. (C) After 24 hour contraction, gels are harvested and processed for α-SMA mRNA, protein and immunofluorescence. (D) Cells were routinely seeded in gels with a high aspect-ratio collagen lattice, although low aspect-ratio lattices (E) were also used in experiments to compare effects of less strain on cell contractility.
We then compared the effect of TNF-α on the rate of contraction on palmar skin and non-palmar skin from a Dupuytren's patient. Collagen gels seeded with palmar fibroblasts were cultured for 24 h in the absence (PS or NPS alone) or presence of TNF-α (1 ng/ml). Data are shown as +/−SD from triplicate experiments using cells from 3 patients for palmar skin and one patient non-palmar skin (**p=0.0012, ns=not significant). […]

[2] = cited from earlier work
murine bone marrow cells = assay: TNF-α production by murine bone marrow cells (wild type, TLR4-/-, MyD88-/-) by ELISA; assay type: cell-based; conditions: TLR4-/- and MyD88-/- mice, FIG. 17
Experimental: In FIG. 17, TNF-α produced by murine bone marrow cells of wild type, TLR4^−/− and MyD88^−/− mice on exposure to murine S100A8 were measured by ELISA.

[3] = exposure to alarmin over tested range, FIG. 15
[4] = phase III clinical trial, Hurst et al 2009

With AGEs the “palmar fibroblast contraction with supernatants from AGE-stimulated monocytes” value (palmar fibroblasts; AGE 100 μg/ml stimulated monocyte supernatant, absence or presence of anti TNF-α 10 μg/ml, FIG. 20) was “stimulated palmar fibroblast contraction in a TNF-α dependent manner” and the “contractility of palmar dermal fibroblasts” value (palmar fibroblasts; AGEs-BSA 150 μg/ml, FIG. 14) was “not affected”.

In the case of S100A8: Alarmin (DAMP) protein, human, the “TNF-α production by human monocytes” value (human monocytes; [3]) is reported as “produced TNF-α in a dose dependent manner”, the “receptor mediating TNF-α production by human monocytes” value (human monocytes; human S100 A8 at 0.5 with antibody to TLR4, TLR2 or soluble RAGE, 14 hours, FIG. 16) is reported as “TLR-4 and not RAGE or TLR-2” and the “relative activity in TNF-α production by human monocytes” value (human monocytes; within the tested range, FIG. 15) is reported as “more active than S100A9 and S100A12”.

With “TGF-β1: cytokine that leads to development of the myofibroblast phenotype” the palmar fibroblast contractility (palmar fibroblasts; 10 ng/ml, compared to untreated palmar fibroblasts, p=0.0001, FIG. 12) was “significant increased palmar fibroblast contractility” and the “contractility of human palmar fibroblasts in collagen lattice under isometric conditions” value (palmar fibroblasts; TGF-β1, cells from 3 patients, FIG. 21) was “enhanced contractility”.

With TNF-α the “contraction rate of non-palmar dermal fibroblasts” value [1] was “no change, or a slight reduction, in contraction rate” and the “isometric force contraction of palmar fibroblasts” value (palmar fibroblasts) was “significantly enhanced contraction”.

For “bacterial collagenase: bacterial (Clostridial) collagenase for enzymatic fasciotomy, FDA approved as Xiaflex”, the “recurrence rates in patients with PIPJ contractures” value ([2]; 2 years follow-up, Badalamente et al 2007) is given as 57%, the “MCPJ contractures effectively treated (to within 5° of full extension)” value [2, 4] is given as 77% and the “PIPJ contractures effectively treated (to within 5° of full extension)” value [2, 4] is given as 40%.

B1: S100A9: Alarmin (DAMP) protein (protein, UniProt P06702 1-114, looked up)
Protein S100-A9: MTCKMSQLERNIETIINTFHQYSVKLGHPDTLNQGEFKELVRKDLQNFLKKENKNEKVIEHIMEDLDTNADKQLSFEEFIMLMARLTWASHEKMHEGDEGPGHHHKPGLGEGTP
With B1 the “TNF-α production by human monocytes” value (human monocytes; [3]) was “to some extent”.

B2: murine S100A8: murine Alarmin S100A8 (protein, UniProt P27005 2-89, looked up)
Protein S100-A8: PSELEKALSNLIDVYHNYSNIQGNHHALYKNDFKKMVTTECPQFVQNINIENLFRELDINSDNAINFEEFLAMVIKVGVASHKDSHKE
In the case of B2, the “receptor/signalling dependence of TNF-α production” value (murine bone marrow cells) is reported as “predominantly binds to TLR-4 and that the intracellular signalling leading to TNF-α production by monocytes is entirely dependent on adaptor protein MyD88”.

B3: HMGB1: high mobility group box protein, an Alarmin (DAMP) (protein, UniProt P09429 1-215, looked up)
High mobility group protein B1: MGKGDPKKPRGKMSSYAFFVQTCREEHKKKHPDASVNFSEFSKKCSERWKTMSAKEKGKFEDMAKADKARYEREMKTYIPPKGETKKKFKDPNAPKRPPSAFFLFCSEYRPKIKGEHPGLSIGDVAKKLGEMWNNTAADDKQPYEKKAAKLKEKYEKDIAAYRAKGKPDAAKKGVVKAEKSKKKKEEEEDEEDEEDEEEEEDEEDEDEEEDDDDE
With B3 the “TNF-α production by human monocytes” value (human monocytes; HMGB1 alone, 14 hours, FIG. 18) was “does not stimulate TNF-α production by monocytes”, the “TNF-α production by human monocytes” value (human monocytes; HMGB1 together with LPS, 14 hours, FIG. 18) was “active in combination with LPS” and the “isometric force contraction of palmar fibroblasts” value (palmar fibroblasts) was “trend towards increased contraction resulting from HMGB1, this was not statistically significant”.
